Measurements taken from ChEMBL document CHEMBL4418261, “Pyripyropene derivatives having acat2 inhibiting activity and stable to metabolizing enzymes” (2017).

Tests used:
[1] = biological target: T1, Sterol O-acyltransferase 2 (Mus musculus) (UniProt O88908); test: Potency index, ratio of PRD-043 IC50 to test compound IC50 for inhibition ACAT2 in mouse hepatic microsome membranes using [1-14C]oleoyl coenzyme A as substrate incubated for 5 mins; format: microsomes
T1 sequence (whole entry): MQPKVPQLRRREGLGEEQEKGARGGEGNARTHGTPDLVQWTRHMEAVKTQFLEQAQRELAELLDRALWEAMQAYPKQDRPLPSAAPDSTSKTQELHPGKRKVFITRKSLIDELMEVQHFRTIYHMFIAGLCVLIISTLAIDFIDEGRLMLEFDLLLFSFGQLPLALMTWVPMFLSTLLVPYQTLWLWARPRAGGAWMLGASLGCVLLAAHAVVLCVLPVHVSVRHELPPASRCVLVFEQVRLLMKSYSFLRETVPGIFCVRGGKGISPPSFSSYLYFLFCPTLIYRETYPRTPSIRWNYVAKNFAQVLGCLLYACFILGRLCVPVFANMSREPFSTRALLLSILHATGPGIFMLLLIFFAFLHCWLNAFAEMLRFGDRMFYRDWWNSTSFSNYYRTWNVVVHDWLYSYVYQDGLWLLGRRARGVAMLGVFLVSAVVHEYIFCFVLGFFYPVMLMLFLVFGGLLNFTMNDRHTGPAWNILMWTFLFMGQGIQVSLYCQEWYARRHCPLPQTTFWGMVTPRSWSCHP

[2] = Half life in Sprague-Dawley rat hepatic microsomes at 6 ug/ml by LC-MS method; format: ADME, Microsome; conditions: liver microsomes

Row | Ratio IC50 [1] | half-life at 6 ug/ml [2] [h] | SMILES
1 | 10 to 20 | > 9 | C[C@@]12CO[C@@H](c3ccccc3)O[C@H]1CC[C@@]1(C)[C@H]2C[C@H](OC(=O)C2CCCCC2)[C@@]2(C)Oc3cc(-c4cccnc4)oc(=O)c3[C@H](O)[C@H]12
2 | < 20 | > 9 | CC(=O)OC[C@@]1(C)[C@@H]2C[C@H](OC(=O)c3ccc(C#N)cc3)[C@@]3(C)Oc4cc(-c5cccnc5)oc(=O)c4[C@H](O)[C@@H]3[C@@]2(C)CC[C@@H]1OC(=O)C(C)C
3 | 10 to 20 | > 9 | CC(=O)O[C@H]1CC[C@@]2(C)[C@@H](C[C@H](OC(=O)c3ccc(C#N)cc3)[C@@]3(C)Oc4cc(-c5cccnc5)oc(=O)c4[C@H](O)[C@H]23)[C@]1(C)COC(=O)c1ccccc1
4 | 10 to 20 | > 9 | CC(C)C(=O)OC[C@@]1(C)[C@@H]2C[C@H](OC(=O)c3ccc([N+](=O)[O-])cc3)[C@@]3(C)Oc4cc(-c5cccnc5)oc(=O)c4[C@H](O)[C@@H]3[C@@]2(C)CC[C@@H]1OC(=O)C(C)C
5 | < 20 | > 9 | Cc1cccc([C@@H]2OC[C@@]3(C)[C@@H]4C[C@H](OC(=O)c5ccc(C#N)cc5)[C@@]5(C)Oc6cc(-c7cccnc7)oc(=O)c6[C@H](O)[C@@H]5[C@@]4(C)CC[C@@H]3O2)c1
6 | 10 to 20 | > 9 | CC(=O)O[C@H]1C[C@H]2[C@](C)(COC(=O)C(C)C)[C@@H](OC(=O)C(C)C)CC[C@]2(C)[C@H]2[C@@H](O)c3c(cc(-c4cccnc4)oc3=O)O[C@]12C
7 | 10 to 20 | > 9 | Cc1cccc([C@@H]2OC[C@@]3(C)[C@@H]4C[C@H](OC(=O)c5ccc(F)cc5)[C@@]5(C)Oc6cc(-c7cccnc7)oc(=O)c6[C@H](O)[C@@H]5[C@@]4(C)CC[C@@H]3O2)c1
8 | 10 to 20 | > 9 | Cc1ccc([C@@H]2OC[C@@]3(C)[C@@H]4C[C@H](OC(=O)c5ccc(F)cc5)[C@@]5(C)Oc6cc(-c7cccnc7)oc(=O)c6[C@H](O)[C@@H]5[C@@]4(C)CC[C@@H]3O2)c(C)c1
9 | 10 to 20 | > 9 | CC(=O)O[C@H]1CC[C@@]2(C)[C@@H](C[C@H](OC(C)=O)[C@@]3(C)Oc4cc(-c5cccnc5)oc(=O)c4[C@H](O)[C@H]23)[C@]1(C)COC(=O)c1ccccc1
10 | 10 to 20 | > 9 | CC(C)C(=O)OC[C@@]1(C)[C@@H]2C[C@H](OC(=O)C3CCCCC3)[C@@]3(C)Oc4cc(-c5cccnc5)oc(=O)c4[C@H](O)[C@@H]3[C@@]2(C)CC[C@@H]1OC(=O)C(C)C
11 |  | < 1 | CC(=O)OC[C@@]1(C)[C@@H]2C[C@H](OC(C)=O)[C@@]3(C)Oc4cc(-c5cccnc5)oc(=O)c4[C@H](O)[C@@H]3[C@@]2(C)CC[C@@H]1OC(C)=O
12 | 10 to 20 | > 9 | CC(=O)OC[C@@]1(C)[C@@H]2C[C@H](OC(=O)c3ccc(C#N)cc3)[C@@]3(C)Oc4cc(-c5cccnc5)oc(=O)c4[C@H](O)[C@@H]3[C@@]2(C)CC[C@@H]1OC(=O)c1ccccc1
13 |  | < 1 | CC(=O)OC[C@@]1(C)[C@@H]2C[C@H](OC(=O)c3cccc(Br)c3)[C@@]3(C)Oc4cc(-c5cccnc5)oc(=O)c4[C@H](O)[C@@H]3[C@@]2(C)CC[C@@H]1OC(C)=O
14 | 10 to 20 | > 9 | CCCCCC(=O)OC[C@@]1(C)[C@@H]2C[C@H](OC(=O)c3ccc(C#N)cc3)[C@@]3(C)Oc4cc(-c5cccnc5)oc(=O)c4[C@H](O)[C@@H]3[C@@]2(C)CC[C@@H]1OC(=O)CCCCC
15 | < 20 | > 9 | Cc1ccc([C@@H]2OC[C@@]3(C)[C@@H]4C[C@H](OC(=O)c5ccc(F)cc5)[C@@]5(C)Oc6cc(-c7cccnc7)oc(=O)c6[C@H](O)[C@@H]5[C@@]4(C)CC[C@@H]3O2)cc1
16 | 10 to 20 | > 9 | C[C@@]12CO[C@@H](c3ccccc3F)O[C@H]1CC[C@@]1(C)[C@H]2C[C@H](OC(=O)c2ccc(C#N)cc2)[C@@]2(C)Oc3cc(-c4cccnc4)oc(=O)c3[C@H](O)[C@H]12
17 |  | < 1 | CCc1ccc(C(=O)O[C@H]2C[C@H]3[C@](C)(COC(C)=O)[C@@H](OC(C)=O)CC[C@]3(C)[C@H]3[C@@H](O)c4c(cc(-c5cccnc5)oc4=O)O[C@]23C)cc1
18 | 10 to 20 | > 9 | Cc1cccc(C)c1[C@@H]1OC[C@@]2(C)[C@@H]3C[C@H](OC(=O)c4ccc(C#N)cc4)[C@@]4(C)Oc5cc(-c6cccnc6)oc(=O)c5[C@H](O)[C@@H]4[C@@]3(C)CC[C@@H]2O1

Row | Ratio IC50 [1] | half-life at 6 ug/ml [2] [h] | SMILES
19 | 10 to 20 | > 9 | COc1ccc(C(OC)O[C@H]2C[C@H]3[C@]4(C)CO[C@@H](c5ccccc5)O[C@H]4CC[C@]3(C)[C@H]3[C@@H](O)c4c(cc(-c5cccnc5)oc4=O)O[C@]23C)cc1 (some centres not stated)
20 |  | < 1 | CC(=O)OC[C@@]1(C)[C@@H]2C[C@H](OC(=O)c3ccccc3C)[C@@]3(C)Oc4cc(-c5cccnc5)oc(=O)c4[C@H](O)[C@@H]3[C@@]2(C)CC[C@@H]1OC(C)=O
21 | 10 to 20 | > 9 | C[C@@]12CO[C@@H](c3ccccc3)O[C@H]1CC[C@@]1(C)[C@H]2C[C@H](OC(=O)c2ccccc2)[C@@]2(C)Oc3cc(-c4cccnc4)oc(=O)c3[C@H](O)[C@H]12
22 | 10 to 20 | > 9 | Cc1ccc([C@@H]2OC[C@@]3(C)[C@@H]4C[C@H](OC(=O)c5ccc(C#N)cc5)[C@@]5(C)Oc6cc(-c7cccnc7)oc(=O)c6[C@H](O)[C@@H]5[C@@]4(C)CC[C@@H]3O2)cc1
23 | 10 to 20 | > 9 | CC(=O)O[C@H]1CC[C@@]2(C)[C@@H](C[C@H](OC(=O)c3ccc(C#N)cc3)[C@@]3(C)Oc4cc(-c5cccnc5)oc(=O)c4[C@H](O)[C@H]23)[C@]1(C)COC(=O)C(C)C
24 | 10 to 20 | > 9 | CC(=O)O[C@H]1C[C@H]2[C@]3(C)CO[C@@H](c4ccccc4)O[C@H]3CC[C@]2(C)[C@H]2[C@@H](O)c3c(cc(-c4cccnc4)oc3=O)O[C@]12C
25 | 10 to 20 | > 9 | COc1ccccc1[C@@H]1OC[C@@]2(C)[C@@H]3C[C@H](OC(=O)c4ccc(F)cc4)[C@@]4(C)Oc5cc(-c6cccnc6)oc(=O)c5[C@H](O)[C@@H]4[C@@]3(C)CC[C@@H]2O1
26 | 10 to 20 | > 9 | C[C@]1(COC(=O)c2ccccc2)[C@@H]2C[C@H](OC(=O)c3ccc(C#N)cc3)[C@@]3(C)Oc4cc(-c5cccnc5)oc(=O)c4[C@H](O)[C@@H]3[C@@]2(C)CC[C@@H]1OC(=O)c1ccccc1
27 | 10 to 20 | > 9 | COc1ccccc1[C@@H]1OC[C@@]2(C)[C@@H]3C[C@H](OC(=O)c4ccc(C#N)cc4)[C@@]4(C)Oc5cc(-c6cccnc6)oc(=O)c5[C@H](O)[C@@H]4[C@@]3(C)CC[C@@H]2O1
28 | 1 | > 9 | COc1cccc(C(=O)O[C@H]2C[C@H]3[C@](C)(COC(C)=O)[C@@H](OC(C)=O)CC[C@]3(C)[C@H]3[C@@H](O)c4c(cc(-c5cccnc5)oc4=O)O[C@]23C)c1
29 |  | < 1 | CC(=O)OC[C@@]1(C)[C@@H]2C[C@H](OC(=O)c3ccc(C)cc3)[C@@]3(C)Oc4cc(-c5cccnc5)oc(=O)c4[C@H](O)[C@@H]3[C@@]2(C)CC[C@@H]1OC(C)=O
30 | 10 to 20 | > 9 | Cc1ccc([C@@H]2OC[C@@]3(C)[C@@H]4C[C@H](OC(=O)c5ccc(C#N)cc5)[C@@]5(C)Oc6cc(-c7cccnc7)oc(=O)c6[C@H](O)[C@@H]5[C@@]4(C)CC[C@@H]3O2)c(C)c1
31 |  | < 1 | CC(=O)OC[C@@]1(C)[C@@H]2C[C@H](OC(=O)c3ccccc3F)[C@@]3(C)Oc4cc(-c5cccnc5)oc(=O)c4[C@H](O)[C@@H]3[C@@]2(C)CC[C@@H]1OC(C)=O
32 | 10 to 20 | > 9 | C[C@@]12CO[C@@H](c3ccccc3F)O[C@H]1CC[C@@]1(C)[C@H]2C[C@H](OC(=O)c2ccc(F)cc2)[C@@]2(C)Oc3cc(-c4cccnc4)oc(=O)c3[C@H](O)[C@H]12
33 | 0.1 to 1 | > 9 | CC(C)C(=O)OC[C@@]1(C)[C@@H]2C[C@H](OC(=O)c3ccc(C#N)cc3)[C@@]3(C)Oc4cc(-c5cccnc5)oc(=O)c4[C@H](O)[C@@H]3[C@@]2(C)CC[C@@H]1OC(=O)C(C)C
34 | 10 to 20 | > 9 | Cc1ccccc1[C@@H]1OC[C@@]2(C)[C@@H]3C[C@H](OC(=O)c4ccc(F)cc4)[C@@]4(C)Oc5cc(-c6cccnc6)oc(=O)c5[C@H](O)[C@@H]4[C@@]3(C)CC[C@@H]2O1
35 | 10 to 20 | > 9 | C[C@@]12CO[C@@H](c3cccc4ccccc34)O[C@H]1CC[C@@]1(C)[C@H]2C[C@H](OC(=O)c2ccc(C#N)cc2)[C@@]2(C)Oc3cc(-c4cccnc4)oc(=O)c3[C@H](O)[C@H]12
36 | < 20 | > 9 | CN(C)c1ccc([C@@H]2OC[C@@]3(C)[C@@H]4C[C@H](OC(=O)c5ccc(C#N)cc5)[C@@]5(C)Oc6cc(-c7cccnc7)oc(=O)c6[C@H](O)[C@@H]5[C@@]4(C)CC[C@@H]3O2)cc1

Row | SMILES | Ratio IC50 [1] | half-life at 6 ug/ml [2] [h]
37 | CC(=O)OC[C@@]1(C)[C@@H]2C[C@H](OC(=O)C3CCCCC3)[C@@]3(C)Oc4cc(-c5cccnc5)oc(=O)c4[C@H](O)[C@@H]3[C@@]2(C)CC[C@@H]1OC(C)=O |  | < 1
